Like-named read-outs stand apart in the source and are kept apart here. Blank lines part the entries; values can stand above or below the molecule they belong to.
Assays:
[1] = hypertensives; 5-7 mM (310-434 mg/L/day) nitrate; cited from earlier work

Structure (SMILES): O=[N+]([O-])O [nitrate]
reduction of systolic blood pressure [1]: 4-11 mmHg

Structure (SMILES): O=[N+]([O-])[O-].[K+] [KNO3, potassium nitrate]
salivary nitrite (ingestion): elevated
Salivary NO2 (subject 1, 500 mg KNO3 (5 mg/Kg) at 8:00, time 1:00PM): 120 µM
Salivary NO2 (subject 1, 500 mg KNO3 (5 mg/Kg) at 8:00, time 2:00): 110 µM
Salivary NO2 (subject 1, 500 mg KNO3 (5 mg/Kg) at 8:00, time 2:45): <20 µM
Salivary NO2 (subject 1, 500 mg KNO3 (5 mg/Kg) at 8:00, time 9:00): 400 µM
Salivary NO2 (subject 1, 500 mg KNO3 (5 mg/Kg) at 8:00, time 11:00): 220 µM
Salivary NO2 (subject 1, 500 mg KNO3 (5 mg/Kg) at 8:00, time 11:40): 110 µM
Salivary NO2 (subject 2, 1,000 mg KNO3 (12 mgNO3/Kg) at 10:00, time 3:00): 220 µM
Salivary NO2 (subject 2, 1,000 mg KNO3 (12 mgNO3/Kg) at 10:00, time 4:00): 110 µM
Salivary NO2 (subject 2, 1,000 mg KNO3 (12 mgNO3/Kg) at 10:00, time 5:45): 20 µM
Salivary NO2 (subject 2, 1,000 mg KNO3 (12 mgNO3/Kg) at 10:00, time 10:30): 200 µM

nitric oxide bioavailability (salivary nitrite as surrogate marker) (human, in vivo): boosted and extended
Structure (SMILES): O=C1O[C@H]([C@@H](O)CO)C(O)=C1O [ascorbate]
